Measurements reported in article PMC6934184, “Selective DNA-PKcs inhibition extends the therapeutic index of localized radiotherapy and chemotherapy” (The Journal of Clinical Investigation, 2019).

Target: T1, PRKCN (PKD3) (Homo sapiens, UniProt O94806)
T1 construct: purchased Thermo Fisher Scientific (Life Technologies) SelectScreen
Assay: SelectScreen Z'LYTE
Format: biochemical
In short: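 NU5455 was profiled across the SelectScreen Broad panel of kinase activity and binding assays. Z'LYTE reactions such as CSF1R ran at apparent Km ATP, while the Adapta CAMK1 assay used ATP listed as 10. Values are given as percent.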

T1 sequence (O94806 whole entry): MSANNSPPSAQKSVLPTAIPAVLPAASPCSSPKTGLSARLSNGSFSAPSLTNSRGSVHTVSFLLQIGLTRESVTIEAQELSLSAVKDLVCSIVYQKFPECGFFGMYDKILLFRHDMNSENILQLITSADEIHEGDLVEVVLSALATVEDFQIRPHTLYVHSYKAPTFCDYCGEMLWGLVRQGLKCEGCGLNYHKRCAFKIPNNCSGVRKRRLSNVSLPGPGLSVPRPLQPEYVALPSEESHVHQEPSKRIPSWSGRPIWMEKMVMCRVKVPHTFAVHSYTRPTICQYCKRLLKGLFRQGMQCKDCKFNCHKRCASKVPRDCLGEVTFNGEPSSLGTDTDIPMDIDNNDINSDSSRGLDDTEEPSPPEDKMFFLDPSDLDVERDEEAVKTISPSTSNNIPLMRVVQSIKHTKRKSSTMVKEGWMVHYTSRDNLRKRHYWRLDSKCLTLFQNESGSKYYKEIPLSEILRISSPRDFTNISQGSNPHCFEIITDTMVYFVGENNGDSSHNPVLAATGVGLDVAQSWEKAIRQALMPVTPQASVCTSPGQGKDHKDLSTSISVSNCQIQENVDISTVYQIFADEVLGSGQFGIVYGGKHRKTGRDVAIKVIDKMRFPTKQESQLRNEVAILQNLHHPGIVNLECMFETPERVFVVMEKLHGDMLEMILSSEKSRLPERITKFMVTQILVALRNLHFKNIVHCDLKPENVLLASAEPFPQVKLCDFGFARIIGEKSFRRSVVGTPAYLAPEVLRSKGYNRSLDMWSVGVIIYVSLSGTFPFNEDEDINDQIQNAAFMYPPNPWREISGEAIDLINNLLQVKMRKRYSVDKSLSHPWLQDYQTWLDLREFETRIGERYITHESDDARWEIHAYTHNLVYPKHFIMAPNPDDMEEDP

CN(C(=O)CN1CCOCC1)c1ccc2sc3c(-c4cccc5c(=O)cc(N6CC7CCC(C6)O7)oc45)cccc3c2c1 [NU5455]
inhibition at 1 µM: 10.7%
